Non-standard residues stand in square brackets, D forms with d. Residues, ends and D or L forms follow the SMILES beside them. d(αMeW) = C[C@@](N)(Cc1c[nH]c2ccccc12)C(=O)O; Phe(4-I) = N[C@@H](Cc1ccc(I)cc1)C(=O)O; Nle = CCCC[C@H](N)C(=O)O; Aib = CC(C)(N)C(=O)O
Each molecule was assayed against human MC4R (Homo sapiens, UniProt P32245) (assay: Intracellular cAMP levels in live cells, MC3R selectivity relative to MC4R). Details: cAMP assays in human MC3R and human MC4R stable cell lines.
Assay type: cell-based
Procedure: The stable cell lines were grown and maintained in selection media consisting of Dulbecco's modified Eagle media (DMEM) with 4.5 g/l D-glucose, and 4 mM L-glutamine (Thermo Fisher Scientific, Waltham, MA), supplemented with 10% fetal bovine serum, 100 units/ml penicillin, 100 μg/ml streptomycin, 2.5 μg/ml amphotericin B, 200 μg/ml hygromycin B (for positive selection of the GScAMP22f luciferase reporter), and Geneticin™ (G418) 700 μg/ml (for MC3R or MC4R selection). Actual serum concentration during the assay is estimated to be about 1%. Cell line identity is routinely verified by qPCR and MC3R- and MC4R-specific oligonucleotides.
The assay for the determination of the CAMP response in live cells was described previously. […] Ccells were seeded at a density of 20,000 cells per well using 384-well poly-D lysine-coated, clear bottom, and black-wall assay plates (Corning Inc. Corning, NJ). Cells were allowed to attach to the plates for 18 to 24 h after which growth media was removed and 20 ul of 4% D-luciferin (Promega) in CO2 independent, serum-free medium (Thermo Fisher Scientific) was added to each well. […] Intracellular cAMP levels were measured using an FDSS 7000EX Functional Drug Screening System (Hamamatsu Photonics, Hamamatsu, Japan) in the Center for Chemical Genomics at the Life Sciences Institute. This instrument allowed the in-line addition of test-peptides and receptor agonists while simultaneously acquiring the luminescence signal from live cells. […] A submaximal forskolin (20 μM) concentration was also included to serve as a normalization reference to account for cell number variations and differences in assay transducer efficiency between cell lines.
With this set up it was possible to evaluate the direct agonist effect of the test-peptides on the MC3R and MC4R cell lines during measurement window 1, while the antagonist profile in the presence of EC90 α-MSH was determined on measurement window 2. […] EC50 or IC50 potency values were determined by non-linear regression by fitting the data to a sigmoid four-parameter variable slope model using the GraphPad Prism version 8.4 software package (San Diego CA).

human MC4R, sequence (P32245 whole entry): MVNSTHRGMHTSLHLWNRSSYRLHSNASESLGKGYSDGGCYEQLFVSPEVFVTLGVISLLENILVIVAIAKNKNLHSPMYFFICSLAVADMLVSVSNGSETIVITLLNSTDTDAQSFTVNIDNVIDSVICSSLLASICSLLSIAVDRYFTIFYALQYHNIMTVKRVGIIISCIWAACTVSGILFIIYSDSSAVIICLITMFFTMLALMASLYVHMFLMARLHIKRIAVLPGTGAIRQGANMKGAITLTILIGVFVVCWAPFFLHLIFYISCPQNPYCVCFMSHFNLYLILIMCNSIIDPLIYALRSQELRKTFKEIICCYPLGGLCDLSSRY

Compared with CC(=O)N[C@@H](Cc1ccc(O)cc1)C(=O)N[C@H](C(=O)N[C@@H](CCC(=O)O)C(=O)NC(C)(C)C(=O)N[C@@H](Cc1c[nH]cn1)C(=O)N[C@@H](Cc1ccc(I)cc1)C(=O)N[C@@H](CCCNC(=N)N)C(=O)N[C@H](Cc1c[nH]c2ccccc12)C(=O)N[C@@H](CC(=O)O)C(=O)N[C@@H](CCCNC(=N)N)C(=O)N[C@@H](Cc1ccccc1)C(=O)NCC(=O)O)C(C)C [CTX-1195, Tyr-Val-Glu-Aib-His-Phe(4-I)-Arg-D-Trp-Asp-Arg-Phe-Gly] (Ac-YVE[Aib]H[Phe(4-I)]R[dW]DRFG-OH), CCCC[C@H](NC(C)=O)C(=O)N[C@H](C)C(=O)N[C@@H](Cc1c[nH]cn1)C(=O)N[C@@H](Cc1ccc(I)cc1)C(=O)N[C@H](CCCNC(=N)N)C(=O)N[C@@H](Cc1c[nH]c2ccccc12)C(=O)N[C@@H](CC(=O)O)C(=O)N[C@@H](CCCNC(=N)N)C(=O)N[C@@H](Cc1ccccc1)C(=O)NCC(=O)O [CTX-1501, Nle-D-Ala-His-Phe(4-I)-D-Arg-Trp-Asp-Arg-Phe-Gly] (Ac-[Nle][dA]H[Phe(4-I)][dR]WDRFG-OH) is lower in “MC3R selectivity (relative to MC4R)” value: 51 for the first, 0.01 for the second.

Going from CCCC[C@H](NC(C)=O)C(=O)N[C@H](C)C(=O)N[C@@H](CCCNC(=N)N)C(=O)N[C@@H](Cc1ccc(I)cc1)C(=O)N[C@@H](CCCNC(=N)N)C(=O)N[C@H](Cc1c[nH]c2ccccc12)C(=O)N[C@@H](CC(=O)O)C(=O)N[C@@H](CCCNC(=N)N)C(=O)N[C@@H](Cc1ccccc1)C(=O)NCC(=O)O [CTX-1197, Nle-D-Ala-Arg-Phe(4-I)-Arg-D-Trp-Asp-Arg-Phe-Gly] (Ac-[Nle][dA]R[Phe(4-I)]R[dW]DRFG-OH) to CCCC[C@H](NC(C)=O)C(=O)N[C@H](C)C(=O)N[C@@H](Cc1c[nH]cn1)C(=O)N[C@@H](Cc1ccc(I)cc1)C(=O)N[C@@H](CCCNC(=N)N)C(=O)N[C@H](Cc1ccccc1)C(=O)N[C@@H](CC(=O)O)C(=O)N[C@@H](CCCNC(=N)N)C(=O)N[C@@H](Cc1ccccc1)C(=O)NCC(=O)O [CTX-1503, Nle-D-Ala-His-Phe(4-I)-Arg-D-Phe-Asp-Arg-Phe-Gly] (Ac-[Nle][dA]H[Phe(4-I)]R[dF]DRFG-OH), the “MC3R selectivity (relative to MC4R)” value falls from 250 to 214.

Compared with CCCC[C@H](NC(C)=O)C(=O)N[C@H](C)C(=O)N[C@@H](Cc1c[nH]cn1)C(=O)N[C@@H](Cc1ccccc1)C(=O)N[C@@H](CCCNC(=N)N)C(=O)N[C@](C)(Cc1c[nH]c2ccccc12)C(=O)N[C@@H](CC(=O)O)C(=O)N[C@@H](CCCNC(=N)N)C(=O)N[C@@H](Cc1ccccc1)C(=O)NCC(=O)O [CTX-1510, Nle-D-Ala-His-Phe-Arg-aMe-D-Trp-Asp-Arg-Phe-Gly] (Ac-[Nle][dA]HFR[d(αMeW)]DRFG-OH), CCCC[C@H](NC(C)=O)C(=O)N[C@H](C)C(=O)N[C@@H](Cc1c[nH]cn1)C(=O)N[C@@H](Cc1ccccc1)C(=O)N[C@@H](CCCNC(=N)N)C(=O)N[C@H](Cc1c[nH]c2ccccc12)C(=O)N[C@@H](CCCC)C(=O)N[C@@H](CCCNC(=N)N)C(=O)N[C@@H](Cc1ccccc1)C(=O)NCC(=O)O [CTX-1532, Nle-D-Ala-His-Phe-Arg-D-Trp-Nle-Arg-Phe-Gly] (Ac-[Nle][dA]HFR[dW][Nle]RFG-OH) is higher in “MC3R selectivity (relative to MC4R)” value: 23 for the first, 184 for the second.

First: CCCC[C@H](NC(C)=O)C(=O)N[C@H](C)C(=O)N[C@@H](Cc1c[nH]cn1)C(=O)N[C@@H](Cc1ccccc1)C(=O)N[C@@H](CCCNC(=N)N)C(=O)N[C@H](Cc1c[nH]c2ccccc12)C(=O)N[C@H](Cc1ccccc1)C(=O)N[C@@H](CCCNC(=N)N)C(=O)N[C@@H](Cc1ccccc1)C(=O)NCC(=O)O [CTX-1530, Nle-D-Ala-His-Phe-Arg-D-Trp-D-Phe-Arg-Phe-Gly] (Ac-[Nle][dA]HFR[dW][dF]RFG-OH)
Second: CCCC[C@H](NC(C)=O)C(=O)N[C@H](C)C(=O)N[C@@H](Cc1c[nH]cn1)C(=O)N[C@@H](Cc1ccccc1)C(=O)N[C@@H](CCCNC(=N)N)C(=O)N[C@H](Cc1c[nH]c2ccccc12)C(=O)N[C@@H](CCCCN)C(=O)N[C@@H](CCCNC(=N)N)C(=O)N[C@@H](Cc1ccccc1)C(=O)NCC(=O)O [CTX-1533, Nle-D-Ala-His-Phe-Arg-D-Trp-Lys-Arg-Phe-Gly] (Ac-[Nle][dA]HFR[dW]KRFG-OH)
The “MC3R selectivity (relative to MC4R)” value of the first is lower: 15 for the first, 314 for the second.

Going from CCCC[C@H](NC(C)=O)C(=O)N[C@H](C)C(=O)N[C@@H](Cc1c[nH]cn1)C(=O)N[C@@H](Cc1ccccc1)C(=O)N[C@@H](CCCNC(=N)N)C(=O)N[C@H](Cc1c[nH]c2ccccc12)C(=O)N[C@@H](CC(=O)O)C(=O)N[C@@H](C)C(=O)N[C@@H](Cc1ccccc1)C(=O)NCC(=O)O [CTX-1534, Nle-D-Ala-His-Phe-Arg-D-Trp-Asp-Ala-Phe-Gly] (Ac-[Nle][dA]HFR[dW]DAFG-OH) to CCCC[C@H](NC(C)=O)C(=O)N[C@H](C)C(=O)N[C@@H](Cc1c[nH]cn1)C(=O)N[C@@H](Cc1ccccc1)C(=O)N[C@@H](CCCNC(=N)N)C(=O)N[C@H](Cc1c[nH]c2ccccc12)C(=O)N[C@@H](CC(=O)O)C(=O)N[C@@H](CCCNC(=N)N)C(=O)N[C@@H](C)C(=O)NCC(=O)O [CTX-1537, Nle-D-Ala-His-Phe-Arg-D-Trp-Asp-Arg-Ala-Gly] (Ac-[Nle][dA]HFR[dW]DRAG-OH), the “MC3R selectivity (relative to MC4R)” value rises from 186 to 278.

Going from CCCC[C@H](NC(C)=O)C(=O)N[C@H](C)C(=O)N[C@@H](Cc1c[nH]cn1)C(=O)N[C@@H](Cc1ccccc1)C(=O)N[C@@H](CCCNC(=N)N)C(=O)N[C@H](Cc1c[nH]c2ccccc12)C(=O)N[C@@H](CC(=O)O)C(=O)N[C@@H](CCCNC(=N)N)C(=O)N1CCC[C@H]1C(=O)NCC(=O)O [CTX-1536, Nle-D-Ala-His-Phe-Arg-D-Trp-Asp-Arg-Pro-Gly] (Ac-[Nle][dA]HFR[dW]DRPG-OH) to CCCC[C@H](NC(C)=O)C(=O)N[C@H](C)C(=O)N[C@@H](Cc1c[nH]cn1)C(=O)N[C@@H](Cc1ccccc1)C(=O)N[C@@H](CCCNC(=N)N)C(=O)N[C@H](Cc1c[nH]c2ccccc12)C(N)=O [CTX-1539, Nle-D-Ala-His-Phe-Arg-D-Trp] (Ac-[Nle][dA]HFR[dW]-NH2), the “MC3R selectivity (relative to MC4R)” value falls from 72 to 16.

For CCCC[C@H](NC(C)=O)C(=O)N[C@H](C)C(=O)N[C@@H](Cc1c[nH]cn1)C(=O)N[C@@H](Cc1ccccc1)C(=O)N[C@@H](CCCCN)C(=O)N[C@H](Cc1c[nH]c2ccccc12)C(=O)N[C@@H](CC(=O)O)C(=O)N[C@@H](CCCNC(=N)N)C(=O)N[C@@H](Cc1ccccc1)C(=O)NCC(=O)O [CTX-1523, Nle-D-Ala-His-Phe-Lys-D-Trp-Asp-Arg-Phe-Gly] (Ac-[Nle][dA]HFK[dW]DRFG-OH), the “MC3R selectivity (relative to MC4R)” value was 5,321.
With CCCC[C@H](NC(C)=O)C(=O)N[C@H](C)C(=O)N[C@@H](Cc1c[nH]cn1)C(=O)N[C@@H](Cc1ccccc1)C(=O)N[C@@H](CCCNC(=N)N)C(=O)N[C@H](Cc1c[nH]c2ccccc12)C(=O)N[C@@H](CC(=O)O)C(=O)N[C@@H](CCCCN)C(=O)N[C@@H](Cc1ccccc1)C(=O)NCC(=O)O [CTX-1535, Nle-D-Ala-His-Phe-Arg-D-Trp-Asp-Lys-Phe-Gly] (Ac-[Nle][dA]HFR[dW]DKFG-OH) the “MC3R selectivity (relative to MC4R)” value was 1,589.
For CCCC[C@H](NC(C)=O)C(=O)N[C@H](C)C(=O)N[C@@H](Cc1c[nH]cn1)C(=O)N[C@@H](Cc1ccccc1)C(=O)N[C@@H](CCCNC(=N)N)C(=O)N[C@H](Cc1c[nH]c2ccccc12)C(=O)N[C@@H](CC(=O)O)C(=O)N[C@@H](CCCNC(=N)N)C(=O)N[C@@H](Cc1ccccc1)C(=O)N[C@H](C(=O)O)C(C)C [CTX-1538, Nle-D-Ala-His-Phe-Arg-D-Trp-Asp-Arg-Phe-Val] (Ac-[Nle][dA]HFR[dW]DRFV-OH), the “MC3R selectivity (relative to MC4R)” value was 1,276.

— US20240287154A1, “MC3R AGONIST PEPTIDES” (The Regents of the University of Michigan, priority 2021, published 2024)
